Entries after “also recorded” stand apart in the source; their conditions may differ.
Experiments:
CYP2C19 = molecular target: T1, CYP2C19 (Homo sapiens, UniProt P33261); test: In vitro stability with recombinant human CYP2C19; format: in vitro ADME; settings: recombinant human isozyme; read-out: t1/2 following incubation with CYP2C19 (converted)
T1 construct: host or cells: heterologous cell systems (not specified)
Protocol: (§1) The half-life (t½) of each test article was determined.

[1] = system: patients with Idiopathic Pulmonary Fibrosis (IPF); test: IPF trial Part B (open label long-term extension): efficacy, safety, TEAEs; format: in vivo, human
Text: Part B (long-term extension) will evaluate the tolerability and long-term safety of LYT-100 in patients who complete the Double-blind Treatment Period. Part B has two periods. […] Patients completing Part B Period 1 will continue maintenance treatment in Part B Period 2 until the study ends. Part B Period 2 will continue at least until all patients who enter Part B Period 1 have the opportunity to complete Part B Period 1. Tolerability and safety during both Part B Period 1 and Part B Period 2 will be monitored by regularly scheduled review of adverse events (AEs), patient reported symptoms, concomitant medications, clinical laboratory findings, physical examinations, electrocardiograms (ECGs), and vital signs. Efficacy will be assessed by evaluation of pulmonary function and monitored by spirometry at regularly scheduled clinic visits. A graphical illustration of an embodiment of the trial design is provided as FIG. 24C.
At the start of Part B, all patients received LYT-100 oral tablets. Patients were titrated onto their assigned doses.
The proportion of patients with prior exposure to nintedanib was limited to 50%.
One hundred and seventy (170) patients (greater than 90%) enrolled in the Open Label Extension (Part B) of the study.

CYP2D6 = molecular target: T2, CYP2D6 (Homo sapiens, UniProt P10635); test: In vitro stability with recombinant human CYP2D6; format: in vitro ADME; settings: recombinant human isozyme; read-out: t1/2 following incubation with CYP2D6 (converted)
T2 construct: host or cells: heterologous cell systems (not specified)
Protocol: as §1

[2] = system: rat BLM induced lung fibrosis model; test: Rat bleomycin induced lung fibrosis model, Phase II (efficacy); settings: bleomycin rats, LYT-100 400 mg/kg QD / nintedanib 60 mg/kg BID
Protocol: For Groups 4, 5, 6, and 7, bleomycin and vehicle dosing were conducted as indicated in Table 28 (0.45 mg/kg, at 1696 IU/mg of Bleomycin or saline on Day 1, 2, 3, 6 and 7).

older, healthy subjects = test: Crossover study Part 2: safety and tolerability (TEAEs), fed and fasted; format: in vivo, human
Text: Over-encapsulation was utilized to maintain study blind. […] Approximately 50 older healthy female and male adult subjects (1:1 ratio) were randomized into 1 of 2 cohorts:Cohort 1 or Cohort 2, N=˜25 subjects per cohort. Subjects in each cohort were randomized to treatment sequence as follows: • Sequence A: Pirfenidone to LYT-100 • Sequence B: LYT-100 to pirfenidone

[3] = system: patients with Idiopathic Pulmonary Fibrosis (IPF); test: IPF trial Part A: safety and tolerability (TEAEs, AESI, dose modifications, discontinuations); format: in vivo
Protocol: The primary objective was to determine the dose(s) to carry into Phase 3. […] Patients were randomized to one of the four treatments in a 1:1:1:1 ratio and stratified based on prior exposure to nintedanib (<6 months) versus nintedanib-naïve patients. Patients who completed the Double-blind Treatment Period (Part A) were offered participation in the Long-term Extension (Part B). […] For patients who participated in Part B, the follow-up was conducted at the end of Part B. A graphical illustration of an embodiment of the trial design is provided as FIG. 24B.
Safety endpoints included: Adverse events, concomitant medications, clinical laboratory findings (chemistry, hematology, urinalysis), physical examinations, ECGs, and vital signs. These will be summarized descriptively, where appropriate.
Tolerability endpoints included: Frequency of dose modifications (reductions and interruptions), time to first dose modification, (reduction or interruption), duration of adverse events of special interest, time to treatment discontinuation due to an adverse event of special interest and patient reported assessment of IPF symptoms, side-effects, severity, change and satisfaction.
In this study, AEs are reported for all patients from the time of consent until the completion of the Follow-up visit. AEs reported prior to the first dose are denoted as pre-treatment. SAEs are reported for all patients (randomized or not) from the time of consent. AEs reported from the time of consent to confinement on Day 0 were recorded as pre-treatment AEs.
Treatment emergent adverse events (TEAEs) are defined as an AE that occurs following first dose of study medication and were evaluated from the first administration of study drug on Day 1 until the Follow-up visit. […]
This study evaluated in particular the tolerability based on prioritized gastrointestinal adverse events (GI AEs). […]

[4] = Part A LYT-100 → Part B LYT-100 (N = 81)
[5] = Part A Pirfenidone → Part B LYT-100 (N = 39)
[6] = Part A Placebo → Part B LYT-100 (N = 50)

T1 sequence (P33261 whole entry): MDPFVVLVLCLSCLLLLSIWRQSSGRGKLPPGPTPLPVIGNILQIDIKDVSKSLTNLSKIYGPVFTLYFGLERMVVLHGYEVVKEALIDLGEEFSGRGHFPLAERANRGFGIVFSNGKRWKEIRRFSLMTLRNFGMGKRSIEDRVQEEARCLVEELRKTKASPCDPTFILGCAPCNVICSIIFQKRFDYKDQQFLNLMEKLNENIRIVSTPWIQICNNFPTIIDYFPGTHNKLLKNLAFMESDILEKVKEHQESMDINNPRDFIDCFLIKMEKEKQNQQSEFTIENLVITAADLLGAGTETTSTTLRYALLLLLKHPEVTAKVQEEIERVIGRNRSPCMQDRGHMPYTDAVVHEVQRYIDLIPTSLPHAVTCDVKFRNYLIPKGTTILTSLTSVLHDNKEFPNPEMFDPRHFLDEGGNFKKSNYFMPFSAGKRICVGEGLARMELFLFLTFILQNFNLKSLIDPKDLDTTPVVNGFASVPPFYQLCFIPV
T2 sequence (P10635 whole entry): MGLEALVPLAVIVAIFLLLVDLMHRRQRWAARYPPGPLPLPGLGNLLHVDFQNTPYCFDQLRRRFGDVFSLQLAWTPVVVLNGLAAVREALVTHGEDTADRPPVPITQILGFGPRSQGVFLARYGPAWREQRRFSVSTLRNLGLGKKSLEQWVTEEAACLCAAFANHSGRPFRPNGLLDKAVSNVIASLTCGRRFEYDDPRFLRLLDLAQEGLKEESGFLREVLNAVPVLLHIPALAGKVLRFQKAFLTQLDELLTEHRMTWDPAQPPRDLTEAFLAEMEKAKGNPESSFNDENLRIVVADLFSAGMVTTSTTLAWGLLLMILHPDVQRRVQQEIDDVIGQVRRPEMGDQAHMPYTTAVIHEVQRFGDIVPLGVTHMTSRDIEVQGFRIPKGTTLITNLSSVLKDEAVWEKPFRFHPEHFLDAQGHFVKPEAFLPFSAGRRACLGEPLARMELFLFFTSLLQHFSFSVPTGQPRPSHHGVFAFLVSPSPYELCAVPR

Question: For `[2H]C([2H])([2H])c1ccc(=O)n(-c2ccccc2)c1` [LYT-100, 5-(methyl-d3)-1-phenylpyridin-2-(1H)-one], which half-life (CYP2C19) is on record?
Answer: Its half-life is 3.67 h.

Question: What about the “response in Open Label Extension” value ([1]; IPF Part B, ongoing, LYT-100 825 mg TID (FIG. 49)) of the same compound?
Answer: Its value is “durable response”.

Question: What about the “TEAE Abdominal Pain” value [1, 4] of the same compound?
Answer: The value was 2 (2.5) n (%).

Question: And the “TEAE Diarrhea” value [1, 4]?
Answer: The value was 2 (2.5) n (%).

Question: And the “TEAE Dyspepsia” value [1, 4]?
Answer: The value was 7 (8.6) n (%).

Question: And the “TEAE Nausea” value [1, 4]?
Answer: Its value is 5 (6.2) n (%).

Question: What about the “TEAE SOC Gastrointestinal disorders” value [1, 4] of the same compound?
Answer: The value was 17 (21.0) n (%).

Question: And the “TEAE Vomiting” value [1, 4]?
Answer: The value was 2 (2.5) n (%).

Question: What about the “TEAE Abdominal Pain” value [1, 5] of the same compound?
Answer: Its value is 1 (2.6) n (%).

Question: What about the “TEAE Diarrhea” value [1, 5] of the same compound?
Answer: Its value is 1 (2.6) n (%).

Question: And the “TEAE Dyspepsia” value [1, 5]?
Answer: Its value is 0 n (%).

Question: What about the “TEAE Nausea” value [1, 5] of the same compound?
Answer: Its value is 2 (5.1) n (%).

Question: What about the “TEAE SOC Gastrointestinal disorders” value [1, 5] of the same compound?
Answer: The value was 5 (12.8) n (%).

Question: What about the “TEAE Vomiting” value [1, 5] of the same compound?
Answer: Its value is 0 n (%).

Question: And the “TEAE Abdominal Pain” value [1, 6]?
Answer: The value was 2 (4.0) n (%).

Question: What about the “TEAE Diarrhea” value [1, 6] of the same compound?
Answer: The value was 2 (4.0) n (%).

Question: And the “TEAE Dyspepsia” value [1, 6]?
Answer: Its value is 7 (14.0) n (%).

Question: What about the “TEAE Nausea” value [1, 6] of the same compound?
Answer: The value was 7 (14.0) n (%).

Question: What about the “TEAE SOC Gastrointestinal disorders” value [1, 6] of the same compound?
Answer: The value was 18 (36.0) n (%).

Question: And the “TEAE Vomiting” value [1, 6]?
Answer: Its value is 3 (6.0) n (%).

Question: What about the “TEAE Abdominal Pain” value ([1]; Part B Subtotal (N = 170)) of the same compound?
Answer: The value was 5 (2.9) n (%).

Question: And the “TEAE Diarrhea” value ([1]; Part B Subtotal (N = 170))?
Answer: Its value is 5 (2.9) n (%).

Question: And the “TEAE Dyspepsia” value ([1]; Part B Subtotal (N = 170))?
Answer: The value was 14 (8.2) n (%).

Question: And the “TEAE Nausea” value ([1]; Part B Subtotal (N = 170))?
Answer: The value was 14 (8.2) n (%).

Question: What about the “TEAE SOC Gastrointestinal disorders” value ([1]; Part B Subtotal (N = 170)) of the same compound?
Answer: The value was 40 (23.5) n (%).

Question: What about the “TEAE Vomiting” value ([1]; Part B Subtotal (N = 170)) of the same compound?
Answer: The value was 5 (2.9) n (%).

Question: What about the half-life (CYP2D6) of the same compound?
Answer: The half-life was 2.72 h.

Question: What about the “hydroxyproline content (μg per mg of wet lung) vs bleomycin/vehicle” value ([2]; Day 8-27) of the same compound?
Answer: The value was “reduced the hydroxyproline content; also recorded: reduced lung hydroxyproline content”.

Question: What about the “lung fibrosis scores (histopathology) vs bleomycin/vehicle” value ([2]; Day 8-27) of the same compound?
Answer: The value was “did not affect the fibrosis scores”.

Question: And the “lung sections with fibrosis Score 1” value ([2]; Day 8-27)?
Answer: Its value is 33%.

Question: And the “lung sections with fibrosis Score 2” value ([2]; Day 8-27)?
Answer: Its value is 36%.

Question: What about the “mean lung weight vs bleomycin/vehicle” value ([2]; Day 8-27) of the same compound?
Answer: Its value is “did not affect mean lung weight”.

Question: And the “median lung fibrosis scores vs bleomycin/vehicle” value ([2]; Day 8-27)?
Answer: Its value is “reduced median fibrosis scores”.

Question: And the “total left lung hydroxyproline (μg per left lung) vs bleomycin/vehicle” value ([2]; Day 8-27)?
Answer: The value was “did not affect total hydroxyproline levels”.

Question: And the body weight gain ([2]; oral gavage Day 8-27)?
Answer: The body weight gain was “resumed and at a rate similar to Group 4; also recorded: did not negatively affect body weight developments”.

Question: And the “deaths or serious AEs” value (older, healthy subjects; Part 2)?
Answer: The value was “No deaths or serious AEs”.

Question: And the “TEAEs leading to study discontinuation, subjects” value (older, healthy subjects; in vivo)?
Answer: The value was “one”.

Question: And the “Discontinued, Primary Reason: Death” value ([3]; 550 mg TID (N = 65))?
Answer: The value was 0 n (%).

Question: And the “Discontinued, Primary Reason: Death” value ([3]; 825 mg TID (N = 64))?
Answer: The value was 0 n (%).

— patent US12622899B2 (PureTech LYT 100, Inc., priority 2018, dated 2026)
